Patent US6114373A, “N-acetyl-5,6-dimethoxytryptamine and its free radical scavenging activity” (priority 1998, dated 2000)
Entries after “also recorded” stand apart in the source; their conditions may differ.

Assays:
[1] = Hydroxyl radical scavenging: DMPO-HO. adduct formation (H2O2 + UV) measured by HPLC-EC; assay type: biochemical
Text: The hydroxyl radical (HO^.cndot.) is the most reactive and cytotoxic species among free radicals. […] Because of its high reactivity, HO^.cndot. once formed either in vitro or in vivo lasts for a very short time (half life about 10^-9 s) and, therefore, HO^.cndot. cannot be measured directly. However, by using a spin trapping agent, in this case 5,5-dimethylpyrroline-N-oxide (DMPO), an adduct (DMPO-HO^.cndot.) is formed between the spin trapping agent and the HO^.cndot.. The adducts have a longer half life and therefore they can be more readily quantified.
When DMPO is incubated in this system the DMPO will traps the HO^.cndot. to form a relatively stable DMPO- HO^.cndot. adduct.
HO^.cndot. +DMPO→DMPO-HO^.cndot.
In the present study, the DMPO-HO^.cndot. adduct was detected by an electro-chemical (EC) detector attached to a high performance liquid chromatography (HPLC) system. […] The applied potential was 1.0 volt and volume of the injected sample was 20 μl.

[2] = system: KA-induced neurobehavioral activities and death in mice; assay: Neurobehavioral activities and death induced by kainic acid in mice; assay type: in vivo, mice (male CD2-FI); details: for Incidence, Seizures / Incidence, Tail arch / Incidence, Tremors / Incidence, Death (death rate): KA 40 mg/kg s.c., compound I or melatonin 5 mg/kg i.p. 10 min before KA, n=15; for Incidence, Seizures / Incidence, Tail arch / Incidence, Tremors: 4 h observation
Experimental: (§1) Kainic acid (KA) was employed to test the in vivo free radical scavenging and antioxidant activities of compound I. KA is an excitatory neurotoxin which destroys neuronal cells by free radical generation (Coyle and Schwarcz, Nature 263: 244-246 1976). Male CD2-FI mice (26-30 g) were chosen as the experimental subject. The mice were housed in windowless room with automatically regulated temperature 22±2° C. and 14 h light/10 h dark cycle. The mice received standard laboratory chow and water ad libitum. The mice were randomized into 4 groups.
Immediately following the injections, neurobehavioral changes were monitored. The observation period extended for 4 hours following the injections. The death rate at 48 hours was recorded. […] By contrast, all of the mice that received KA developed some neurobehavioral changes including arching of tail, tremors and seizures. The death rate in this group was 33%. […] Tremors and seizures decreased from 100% in the KA-treated mice to 40% (p=0.001), respectively,and the death rate was reduced to 20%.

[3] = system: brain lipid proxidation (MDA+4-HDA) in cerebral cortex; assay: Brain oxidative damage test: lipid peroxidation product (LPO; MDA+4-HDA) in cerebral cortex of KA-treated mice; assay type: in vivo, mice (male CD2-FI); details: for level of LPO in brain (in words): KA 40 mg/kg s.c. plus compound I or melatonin 5 mg/kg i.p., 48 h, FIG. 5
Experimental: as §1
Forty-eight hours after treatment, 5 mice of each group were sacrificed and the cerebral cortex was excised and immediately placed on dry ice and stored at -80° C. for the lipid prooxidation product (LPO) assay. LPO is the most commonly used index of free radical damage and the assay used to measure the level of LPO is described in a kit avaliable from Calbiochem (LA Jolla, Calif.). LPO was expressed as malondialdehyde (MDA) and 4-hydroxyalkenals (4-HDA)/mg protein. The level of LPO in the cerebral cortex of mice in the control group was 3.47=0.18 nmol/mg protein; in KA injected mice the level of LPO was increased to 4.42=0.11 nmol/mg protein. This increase, when compared to the control mice, was great than 27% (p<0.05).

[4] = system: pyramidal neurons in the hippocampal CA3 area; assay: Morphological observations of hippocampus of KA-treated mice (light microscopy); assay type: in vivo, mice (male CD2-FI); details: seven days following treatment; KA 40 mg/kg s.c. with or without 5 mg/kg compound I or melatonin; hematoxylin and eosin
Experimental: as §1
Seven days following the treatment, representive mice in each of the groups mentioned above were sacrificed. The brains were immersed in normal fixation buffer. The hippocampi and surrounding tissue were dissected from the whole brain, cut and stained with hematoxylin and eosin. The morphological assessment of neuronal damage was determined by using light microscopy. In the brains of control mice no visible neuronal damage was observed. […] The induced neuronal damage was concentrated in the hippocampal CA3 area. The total histological architecture of CA3 area was altered. Virtually all of the pyrimadal neurons in this area were destroyed. The cell membranes appeared to have disintegrated and the nuclei of the cells were condensed and pyknotic. These changes are consistent with cell death. […] Few damaged neurons were observed microcopically in this area in these two groups (FIG. 6).

[5] = background statement; cited from earlier work
[6] = system: experimental animal life span; details: Pierpaoli and Regelson, Proc. Natl. Acad. Sci. USA 91: 787-791 1994; up to; cited from earlier work

Row | Structure (SMILES) | suppression of DMPO-HO. adduct formation (in words) ([1]; compared with melatonin, FIG. 3, dose-response, FIG. 4) | IC50 ([1]; read-out: IC50 (concentration required to produce 50% inhibition of the DMPO-HO. formation), H2O2 + UV (254 nm), DMPO spin trap, HPLC-EC) [µM] | Incidence, Seizures [2] [%] | Incidence, Tail arch [2] [%] | Incidence, Tremors [2] [%] | Death (in words) ([2]; at 48 hours, KA 40 mg/kg s.c. plus compound I 5 mg/kg i.p.) | Incidence, Death (death rate) ([2]; at 48 hours) [%] | level of LPO in brain (in words) [3] | morphological assessment of neuronal damage, hippocampal CA3 area [4] | increase of LPO level compared to control mice ([3]; 48 h after KA 40 mg/kg s.c., p<0.05) [%] | biological half life in the blood [5] | prolongation of experimental animal life span [6]
1 | COc1cc2[nH]cc(CCNC(C)=O)c2cc1OC [Compound I, N-acetyl-5,6-dimethoxytryptamine] | efficacy is greater than that of melatonin | 15 | 20 | 40 | 40 | none of them died | 0 | reduced to control levels | No obviously neuronal damage is observed; also recorded: the hippocampal CA3 area of the brain was still intact | – | – | –
2 | C=C(C)[C@H]1CN[C@H](C(=O)O)[C@H]1CC(=O)O [KA] | – | – | 100 | 86 | 100 | – | 33 | – | The morphological architecture of neurons in the hippocampal CA3 region were destroyed; also recorded: the pyramidal neurons of the hippocampus were severely damaged | > 27 | – | –
3 | COc1ccc2[nH]cc(CCNC(C)=O)c2c1 [melatonin] | – | – | 40 | 33 | 40 | – | 20 | reduced to control levels | No obviously neuronal damage is observed; also recorded: the hippocampal CA3 area of the brain was still intact | – | 20-40 min | up to 27%
